Results taken from patent US20250230138A1, “COMPOUNDS HAVING A T-STRUCTURE FORMED BY AT LEAST FOUR CYCLES FOR USE IN THE TREATMENT OF CANCER AND OTHER INDICATIONS” (TheRas, Inc., priority 2022, published 2025).
Read-outs that look alike come from different tables or passages of the source.

Assays:
pAKT in BT474 cells = assay: Cell-based pAKT HTRF assay in BT474 cells; details: BT474 cells, 4 hr incubation, read-out: pAKT inhibition IC50 in BT474 cells
Summary of the method: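 Cells grown in DMEM with 10% FBS were exposed to compounds for 4 hr in 0.25% DMSO, using a 9-point, 3-fold dilution series that starts at 3 μM. Lysates were incubated with d2 and Eu Cryptate antibodies for 4–24 h at room temperature, and HTRF was read at 615 nm emission.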

[1] = molecular target: Cys242 in human PIK3CA (157-299) (Homo sapiens (Human), UniProt P42336); assay: Covalent modification assay using MALDI-TOF MS; assay type: biochemical; details: 4 h reaction time point
Chain of Cys242 in human PIK3CA (157-299) (P42336 157-299): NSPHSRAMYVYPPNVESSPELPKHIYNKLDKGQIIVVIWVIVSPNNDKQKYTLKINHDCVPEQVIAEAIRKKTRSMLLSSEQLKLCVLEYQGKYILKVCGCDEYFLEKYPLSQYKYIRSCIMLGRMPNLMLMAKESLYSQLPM
Summary of the method: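 Covalent adduct formation was read by linear-mode MALDI-TOF with sinapinic acid matrix, reported as modified-protein peak height divided by total protein peak heights. Reactions held PIK3CA (157-299) at 1 or 3.33 μM in HEPES/NaCl/MgCl2 buffer, pH 7.3, sampled after 15 min to 4 h at room temperature.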

[2] = 1 μM protein target, 1:5 protein to compound ratio (compounds 853-1279)
[3] = Homo sapiens, BT-474, Compounds 10-999
[4] = 3.33 μM protein target, 1:7.5 protein to compound ratio (compounds 1-852)

Structure (SMILES) | IC50 (pAKT in BT474 cells; Compounds 1000-1279) | % of modification [1, 2] | IC50 (pAKT in BT474 cells; [3]) | % of modification [1, 4] | IC50 (pAKT in BT474 cells; Compounds 10-999)
C=CC(=O)N1CCc2cc(-c3nc(-c4ccc5cn(C)nc5c4)c4ccsc4c3-c3c(F)cc(F)cc3OCCOC)nn2CC1 [Compound 1027] | < 100 nM | A (percent of modification of PIK3CA protein ≥75%) |  |  | 
C=CC(=O)N1CCn2nc(-c3nc(-c4ccc5c(c4)CCNC5=O)c4ccsc4c3-c3ccc(F)cc3OC(C)C)cc2C1 [Compound 199, 6-[7-(4-fluoro-2-isopropoxy-phenyl)-6-(5-prop-2-enoyl-6,7-dihydro-4H-pyrazolo[1,5-a]pyrazin-2-yl)thieno[3,2-c]pyridin-4-yl]-3,4-dihydro-2H-isoquinolin-1-one] |  |  | < 100 nM | A (percent of modification of PIK3CA protein ≥75%) | 
C=CC(=O)N1CCc2nc(-c3nc(-c4ccc5c(c4)CNC(=O)C5)c4ccsc4c3-c3c(F)cc(F)cc3OCCOC)sc2C1 [Compound 1070] | < 100 nM | A (percent of modification of PIK3CA protein ≥75%) |  |  | 
C=CC(=O)N1CCn2nc(-c3nc(-c4cnn(C)c4)c4ccsc4c3-c3c(F)cc(F)cc3OCC(C)O)cc2C1C (centres unmarked) [Compound 551] |  |  |  | A (percent of modification of PIK3CA protein ≥75%) | < 100 nM
C=CC(=O)N1CCc2nc(-c3nc(-c4ccc5c(c4)CCNC5)c4ccsc4c3-c3c(F)cc(F)cc3OC(C)C)sc2C1 [Compound 367] |  |  |  | A (percent of modification of PIK3CA protein ≥75%) | 100 to 1000 nM
C=CC(=O)N1CCn2nc(-c3nc(N4CCN(C(C)C)CC4)c4ccsc4c3-c3ccc(F)cc3OCCOC)cc2C1 [Compound 209] |  |  |  | A (percent of modification of PIK3CA protein ≥75%) | < 100 nM
COc1cc(F)ccc1-c1c(-c2cnn(C3CN(C(=O)/C=C/CN(C)C)C3)c2)nc(-c2cnn(CC(F)F)c2)c2ccsc12 [Compound 137] |  |  |  | C (25%≤percent of modification <50%) | 1000 to 3000 nM
C=CC(=O)N1CCn2nc(-c3nc(-c4ccn5cncc5c4)c4ccsc4c3-c3c(F)cc(F)cc3OCCOC)cc2C1C (centres unmarked) [Compound 1074] | < 100 nM | A (percent of modification of PIK3CA protein ≥75%) |  |  | 
C=CC(=O)N1CCn2nc(-c3nc(-c4ccc5c(c4)CN(C)C5=O)c4ccsc4c3-c3c(F)cc(F)cc3OCCO)cc2C1C (centres unmarked) [Compound 875] |  | A (percent of modification of PIK3CA protein ≥75%) |  |  | < 100 nM
C=CC(=O)N1Cc2cc(-c3nc(-c4cnn(C)c4)c4ccsc4c3-c3c(F)cc(F)cc3OC[C@@H](C)O)nn2C[C@H]1C [Compound 724] |  |  |  | A (percent of modification of PIK3CA protein ≥75%) | < 100 nM
C=CC(=O)N1CCn2nc(-c3nc(-c4cnn(C)c4)c4ccsc4c3-c3ccc(F)cc3OC(C)C)cc2C1C (centres unmarked) [Compound 394] |  |  |  | A (percent of modification of PIK3CA protein ≥75%) | < 100 nM
C=CC(=O)N1Cc2cc(-c3nc(-c4ccc5cnn(C)c5c4)c4ccsc4c3-c3c(F)cc(F)cc3OC[C@@H](C)O)nn2C[C@H]1C [Compound 755] |  |  |  | A (percent of modification of PIK3CA protein ≥75%) | < 100 nM
C=CC(=O)N1CCn2nc(-c3nc(-c4cnn(C)c4)c4c(c3-c3ccc(F)cc3OC)C(F)CC4)cc2C1 (centres unmarked) [Compound 574, 1-(2-(5-fluoro-4-(4-fluoro-2-methoxyphenyl)-1-(1-methyl-1H-pyrazol-4-yl)-6,7-dihydro-5H-cyclopenta[c]pyridin-3-yl)-6,7-dihydropyrazolo[1,5-a]pyrazin-5(4H)-yl)prop-2-en-1-one] |  |  | < 100 nM | A (percent of modification of PIK3CA protein ≥75%) | 
C=CC(=O)N1Cc2cc(-c3nc(-c4ccnc(N(C)C)c4)c4ccsc4c3-c3c(F)cc(F)cc3OCCOC)nn2C[C@H]1C [Compound 839] |  |  |  | A (percent of modification of PIK3CA protein ≥75%) | < 100 nM
C=CC(=O)N1CCn2nc(-c3nc(-c4cnn(C)c4)c4ccsc4c3-c3ccc(F)cc3Cl)cc2C1 [Compound 291] |  |  |  | A (percent of modification of PIK3CA protein ≥75%) | < 100 nM
C=CC(=O)N1CCn2nc(-c3nc(-c4ccc5ncn(C)c5c4)c4ccsc4c3-c3c(F)cc(F)cc3OC[C@@H](C)O)cc2[C@@H]1C [Compound 647] |  |  |  | A (percent of modification of PIK3CA protein ≥75%) | < 100 nM
C=CC(=O)N1CCn2nc(-c3nc(-c4ccc5c(c4)CCN(C(C)C)C5)c4ccsc4c3-c3ccc(F)cc3OC)cc2C1 [Compound 263] |  |  |  | A (percent of modification of PIK3CA protein ≥75%) | < 100 nM
C=CC(=O)N1CCC(n2cc(-c3nc(-c4cn(C)cn4)c4ccsc4c3-c3ccc(F)cc3OCCOC)cn2)CC1 [Compound 73] |  |  |  | A (percent of modification of PIK3CA protein ≥75%) | 100 to 1000 nM
C=CC(=O)N1CCc2nc(-c3nc(-c4ccc5c(c4)NC(=O)C5)c4ccsc4c3-c3c(F)cc(F)cc3OCCOC)sc2C1 [Compound 1003] | < 100 nM | A (percent of modification of PIK3CA protein ≥75%) |  |  | 
